Experimental data taken from US10760110B2, “Antibiotic testing and screening system” (priority 2017, dated 2020).

Tested on: A. baumannii KW1 strains with β-lactamase plasmids
Experiment: Etest MIC of β-lactams, extended-spectrum β-lactamase, AmpC β-lactamase or carbapenemase (Table 18)
Format: cell-based, Acinetobacter baumannii
Experimental: DNA fragments of the resistance genes along with their flanking regions were amplified from clinical plasmids via PCR with specific primer pairs. The resulting PCR fragments were digested and then cloned into the plasmid pYMAb5 or pYMAb5Tc. The resulting plasmids were then transformed into A. baumannii KW1 via electroporation.
The MICs of antibiotics were determined using the Etest (Biodisk AB, Sweden) according to the manufacturer's instructions. The MICs from the Etest, which fall between standard two-fold dilutions, were rounded up to the next highest two-fold value. The MICs of ceftazidime and cefotaxime against K. pneumoniae NVT1001 harbouring the pACYC177 plasmid with blaOXA-48 were further determined using a broth microdilution test according to the recommendations of the CLSI,^25 and the results were interpreted according to the breakpoints established by the CLSI in 2017.^25 Meanwhile, due to the lack of CLSI breakpoints in 2016 and 2017, the results for cephalothin were interpreted according to the breakpoints established by the CLSI in 2015,^26 and the results for moxifloxacin were interpreted according to the breakpoints established by the EUCAST in 2017.^27

SMILES	MIC (KW1, no supplemental plasmid)	MIC (KW1 with ADC-30 on pYMAb5)	MIC (KW1 with CTX-M-15 on pYMAb5)	MIC (KW1 with IMP-1 on pYMAb5)	MIC (KW1 with NDM-1 on pYMAb5)	MIC (KW1 with OXA-23 on pYMAb5)	MIC (KW1 with OXA-58 on pYMAb5)	MIC (KW1 with OXA-66 on pYMAb5)	MIC (KW1 with OXA-72 on pYMAb5)	MIC (KW1 with VEB-3 on pYMAb5)	MIC (KW1 with VIM-1 on pYMAb5)	MIC (KW1 with shuttle vector pYMAb5)
C[C@H]1[C@H](NC(=O)/C(=N\OC(C)(C)C(=O)O)c2csc(N)n2)C(=O)N1S(=O)(=O)O [ATM]	16 µg/mL	64 µg/mL	>256 µg/mL	16 µg/mL	12 µg/mL	16 µg/mL	16 µg/mL	12 µg/mL	16 µg/mL	>256 µg/mL	12 µg/mL	12 µg/mL
C[C@@H](O)[C@H]1C(=O)N2C(C(=O)O)=C(S[C@@H]3CN[C@H](CNS(N)(=O)=O)C3)[C@H](C)[C@H]12 [DOR]	0.38 µg/mL	4 µg/mL	1.5 µg/mL	16 µg/mL	>32 µg/mL	>32 µg/mL	6 µg/mL	8 µg/mL	>32 µg/mL	0.38 µg/mL	>32 µg/mL	0.38 µg/mL
C[C@@H](O)[C@H]1C(=O)N2C(C(=O)O)=C(S[C@@H]3CN[C@H](C(=O)Nc4cccc(C(=O)O)c4)C3)[C@H](C)[C@H]12 [ETP]	3 µg/mL	>32 µg/mL	12 µg/mL	>32 µg/mL	>32 µg/mL	>32 µg/mL	>32 µg/mL	>32 µg/mL	>32 µg/mL	3 µg/mL	>32 µg/mL	3 µg/mL
